Reference: publication PMC8907207, “Multiplex quantification of C-terminal alpha-1-antitrypsin peptides provides a novel approach for characterizing systemic inflammation” (Scientific Reports, 2022)
Ends that are not written are not given here.

Key:
[1] = Freeze/thaw stability of QC samples; assay type: in vitro ADME; details: QC in 70 g/L albumin in PBS, two cycles of freezing and thawing, LC-MS/MS
Protocol: (§1) Stability of analytes in processed samples was determined at six independent days for a time span of 20 h in the autosampler. Deviations of standing samples to freshly measured samples were below 19% at the LLOQ and below 9% for other QC levels for each analyte, respectively (Additional file 4). Stability of analytes in biological matrix was determined by consecutive cycles of freezing and thawing as well as extended intervals at room temperature from thawing to processing (approximately one hour).
(§2) Lyophilized authentic peptide standards were dissolved and diluted in a 70 g/L Albumin (from human serum, lyophilized, ≥ 99%, Sigma-Aldrich) in PBS (Sigma-Aldrich, St. Louis, MO, USA) solution. Internal standards C37^IS and C42^IS were dissolved in Milli-Q water (Millipore, Brussels, Belgium) containing 0.1% (v/v) formic acid (≥ 95%, Sigma-Aldrich) whereas C22^IS was only dissolved in ultrapure water. Mixtures of CAAPs used as calibration standards (calibrants) and quality control samples (QCs) were prepared as stock solution to a final concentration of 14 µM, respectively, (expect C40^SNP which was 5 µM) with subsequent serial dilutions. Calibrants and QCs were obtained from separate serial dilutions. Internal standard solution was prepared by adding equal volumes of each IS yielding a final concentration of 0.8 µM, respectively. All samples used for method development and validation were prepared and stored in 0.5 mL Protein LoBind Tubes (Eppendorf AG, Hamburg, Germany) in aliquots at − 80 °C until use.
(§3) Working range of calibrants was defined based on CAAPs detected in samples from healthy donors (set to approximate lower limit of quantification) and in samples from septic patients (set to middle to high calibration range) which were re-analyzed from a previously work[46]. Nine calibrants were used in total ranging from 0.01 µM to 1.5 µM thereby covering more than two orders of magnitude in concentration. Linearity was assessed determining mean linear regression coefficients of each calibration curve from 0.01 to 1.5 µM in eight independent analytical runs. However, respective LLOQs (lower limit of quantification) and ULOQs (upper limit of quantification) were defined individually based on natural occurrence (see above) and results from validation parameter directly affected individual working ranges (carry-over, specificity). Four QC samples were prepared and measured in total (QC1, QC2, QC3, and QC4) to cover the entire range of calibration. However, three QCs for each of the respective analytes were used for method validation. Carry-over was determined measuring pure albumin solutions prepared without internal standards (but equal amount and concentration of water/formic acid solution as regular internal standard solution, “blank albumin sample”) directly after the respective highest calibrants. Peak areas were compared to peak areas from respective LLOQ samples (prepared with regular internal standard solution). Specificity was assessed using single compounds at respective highest calibrant level which were prepared and calculated as described for carry-over. The specificity of analytes towards internal standards was determined using pure albumin solution with internal standard (“zero albumin sample”). Accuracy and precision was determined by back-calculated concentrations from repeated measurements of the same QC samples during one analytical run (within-run repeatability, n = 5) and from freshly prepared samples during five independent analytical runs (between-run, n = 5). Due to the unavailability of analyte-free biological matrix, selectivity of analytes were assessed in pure albumin solution containing internal standards. Matrix effects were determined calculating recovery rates and precision of each compound in human blood samples. Direct comparison between different anticoagulants (EDTA, lithium-heparin) and serum was performed using whole blood from the same human donor. […]

[2] = Benchtop stability of QC samples at room temperature; assay type: in vitro ADME; details: QC in 70 g/L albumin in PBS, 60 min. at room temperature, LC-MS/MS
Protocol: as §1, §2, §3

[3] = QC2 (0.025 µM; C40^SNP see Table 1)
[4] = QC3 (0.3 µM; C40^SNP 0.1073 µM)

freeze/ thaw stability, accuracy (mean of n=3) [1, 3]	freeze/ thaw stability, deviation from freshly processed QCs (mean of n=3) [1, 3]	freeze/ thaw stability, accuracy (mean of n=3) [1, 4]	freeze/ thaw stability, deviation from freshly processed QCs (mean of n=3) [1, 4]	benchtop stability, accuracy (mean of n=3) [2, 3]	benchtop stability, deviation from freshly processed QCs (mean of n=3) [2, 3]	benchtop stability, accuracy (mean of n=3) [2, 4]	benchtop stability, deviation from freshly processed QCs (mean of n=3) [2, 4]	Sequence
103%	-3%	100%	-3%	104%	-1%	101%	-2%	AIPMSIPPEVKFNKPFVFLMIDQNTKSPLFMGKVVNPTQK [C40^SNP]
107%	5%	99%	-4%	109%	6%	101%	-3%	AIPMSIPPEVKFNKPFVFLMIEQNTKSPLFMGKVVNPTQK [C40^WT]
109%	-3%	112%	-2%	114%	1%	112%	-2%	AMFLEAIPMSIPPEVKFNKPFVFLMIDQNTKSPLFMGKVVNPTQK [C45^SNP]
108%	-6%	117%	-2%	116%	1%	117%	-3%	AMFLEAIPMSIPPEVKFNKPFVFLMIEQNTKSPLFMGKVVNPTQK [C45^WT]
105%	-4%	107%	-3%	109%	1%	107%	-3%	FLEAIPMSIPPEVKFNKPFVFLMIDQNTKSPLFMGKVVNPTQK [C43^SNP]
103%	-2%	108%	-2%	110%	4%	109%	-1%	FLEAIPMSIPPEVKFNKPFVFLMIEQNTKSPLFMGKVVNPTQK [C43^WT]
105%	-1%	102%	-2%	102%	-4%	100%	-4%	IPMSIPPEVKFNKPFVFLMIDQNTKSPLFMGKVVNPTQK [C39^SNP]
107%	8%	101%	2%	106%	8%	98%	-1%	IPMSIPPEVKFNKPFVFLMIEQNTKSPLFMGKVVNPTQK [C39^WT]
105%	2%	100%	-4%	104%	1%	101%	-3%	LEAIPMSIPPEVKFNKPFVFLMIDQNTKSPLFMGKVVNPTQK [C42^SNP]
104%	2%	100%	-4%	102%	1%	101%	-3%	LEAIPMSIPPEVKFNKPFVFLMIEQNTKSPLFMGKVVNPTQK [C42^WT]
103%	2%	97%	0%	104%	2%	100%	3%	LMIDQNTKSPLFMGKVVNPTQK [C22^SNP]
104%	2%	99%	-2%	103%	1%	102%	1%	LMIEQNTKSPLFMGKVVNPTQK [C22^WT]
109%	-6%	115%	-2%	114%	-2%	115%	-2%	MFLEAIPMSIPPEVKFNKPFVFLMIDQNTKSPLFMGKVVNPTQK [C44^SNP]
110%	-4%	115%	-1%	117%	1%	114%	-2%	MFLEAIPMSIPPEVKFNKPFVFLMIEQNTKSPLFMGKVVNPTQK [C44^WT]
104%	0%	98%	-1%	103%	0%	99%	-1%	MSIPPEVKFNKPFVFLMIDQNTKSPLFMGKVVNPTQK [C37^SNP]
114%	9%	103%	1%	106%	1%	101%	-1%	MSIPPEVKFNKPFVFLMIEQNTKSPLFMGKVVNPTQK [C37^WT]
